Test results reported in patent US8252781B2, “1,2-diazetidin-3-one derivatives and drugs containing same” (Kowa Company, Ltd., priority 2008, dated 2012).
Read-outs that look alike come from different tables or passages of the source.

Legend:
[1] = target: T1, human 11β-HSD1 (Homo sapiens, UniProt P28845); assay: Enzyme inhibitory activity, human 11β-HSD1 (lysate of stably expressing HEK293 cells, cortisol by competitive ELISA); type: biochemical; conditions: human 11β-HSD1, cell lysate, 37° C. for 1 hour, read-out: h HSD1 in vitro assay (IC50 uM)
T1 construct: The obtained PCR products of about 0.9 kbp, 1.2 kbp, and 0.9 kbp were subcloned into an expression vector pcDNA3.1+/Zeo; expressed in transfected cells
T1 sequence (P28845 whole entry): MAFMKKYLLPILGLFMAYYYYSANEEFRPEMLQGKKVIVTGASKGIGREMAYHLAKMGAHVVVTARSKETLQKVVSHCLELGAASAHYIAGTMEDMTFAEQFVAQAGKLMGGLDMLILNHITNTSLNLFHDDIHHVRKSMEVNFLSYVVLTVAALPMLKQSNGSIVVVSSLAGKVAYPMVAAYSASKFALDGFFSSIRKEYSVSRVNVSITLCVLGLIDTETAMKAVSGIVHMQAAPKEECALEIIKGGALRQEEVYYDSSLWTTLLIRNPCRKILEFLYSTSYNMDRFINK
Experimental: (§1) 1. Human 11β-HSD1-, Human 11β-HSD2- and Mouse 11β-HSD1-Gene Clonings and Establishment of Stably Expressing Cells
(§2) Human 11β-HSD1-, human 11β-HSD2-, and mouse 11β-HSD1-gene clonings were conducted using as a template a reverse transcription product of human-liver RNA, human-kidney RNA (CELL APPLICATIONS), and mouse-kidney RNA respectively, by means of PCR cloning with reference to nucleotide sequences of Genbank Accession Nos. NM_005525, NM_000196, and NM_008288. The obtained PCR products of about 0.9 kbp, 1.2 kbp, and 0.9 kbp were subcloned into an expression vector pcDNA3.1+/Zeo (Invitrogen).
(§3) Human 11β-HSD1- and human 11β-HSD2-expressing vectors were transfected into human kidney-derived cell line, HEK293 cells, using a transfection reagent, jet PEI (Funakoshi). Mouse 11β-HSD1 was transfected to Chinese hamster ovary-derived cell line, CHO-K1 cells. Selection was conducted with 200-400 μg/mL of zeocine (Invitrogen) to provide stably expressing-cell clones. The stably expressing cells were suspended in buffer solution A (20 mmol/L Tris-HCl, pH 7.4, 250 mmol/L sucrose, 1 mmol/L EGTA, 1 mmol/L EDTA, 1 mmol/L MgCl2), sonicated, and then stored at −80° C.
(§4) 2. Assay of Enzyme Inhibitory Activity
(§5) An enzymatic reaction was conducted using a polystyrene 96-well plate. Each well was added with 1 μL of a test agent dissolved in DMSO and then diluted (0.003 to 3 mmol/L), and further added with 10 μL of cell lysate diluted to a concentration of 0.1 mg/mL to 0.4 mg/mL. Next, 90 μL of buffer solution A containing substrate (100 nmol/L cortisone or cortisol) and coenzyme (400 μmol/L NADPH or NAD+) was added and the mixture was incubated at 37° C. for 1 hour. The enzymatic reaction was stopped by treating at 95° C. for 3 minutes. Cortisol that was present in the reaction solution was determined by a competitive ELISA shown below.
(§6) Anti-rabbit IgG antibody (Chemi-con) diluted to 2 μg/mL with carbonate buffer solution (pH 9.6) was added in 100 μL each to a 96-well immuno plate (Nunc) and immobilized by an incubation at 4° C. overnight. 50 μL of enzymatic reaction solution was put onto the plates, and further, anti-cortisol antibody (Cosmo Bio) and HRP-labeled cortisol (Cosmo Bio), diluted with buffer solution B (25 mmol/L Tris-HCl pH 7.4, 137 mmol/L NaCl, 2.68 mmol/L KCl), were added in 50 μL respectively and incubated at 4° C. overnight. After washed three times with buffer solution B containing 0.05% Tween 20, the plates were allowed to develop color by adding 100 μL of color reagent, TMB (Moss). The color reaction was stopped by 25 μL of 1 mol/L sulfuric acid and the absorbance was determined at 450 nm with a microplate reader (Molecular Device, VersaMax).
(§7) The values of human 11β-HSD1, human 11β-HSD2, and mouse 11β-HSD1 activities were subtracted from 100, and the resultant values were regarded as the respective 11β-HSD inhibition rates of example compounds. […] The comparison of human 11β-HSD1 and human 11β-HSD2 inhibiting activities is shown in Table 1, and the comparison of human 11β-HSD1 and mouse 11β-HSD1 inhibiting activities is shown in Table 2.

[2] = target: T2, mouse 11β-HSD1 (Mus musculus, UniProt P50172); assay: Enzyme inhibitory activity, mouse 11β-HSD1 (lysate of stably expressing CHO-K1 cells, cortisol by competitive ELISA); type: biochemical; conditions: Table 2; mouse 11β-HSD1, cell lysate, 37° C. for 1 hour; read-out: m HSD1 in vitro assay (IC50 uM)
T2 construct: The obtained PCR products of about 0.9 kbp, 1.2 kbp, and 0.9 kbp were subcloned into an expression vector pcDNA3.1+/Zeo; expressed in transfected cells
T2 sequence (P50172 whole entry): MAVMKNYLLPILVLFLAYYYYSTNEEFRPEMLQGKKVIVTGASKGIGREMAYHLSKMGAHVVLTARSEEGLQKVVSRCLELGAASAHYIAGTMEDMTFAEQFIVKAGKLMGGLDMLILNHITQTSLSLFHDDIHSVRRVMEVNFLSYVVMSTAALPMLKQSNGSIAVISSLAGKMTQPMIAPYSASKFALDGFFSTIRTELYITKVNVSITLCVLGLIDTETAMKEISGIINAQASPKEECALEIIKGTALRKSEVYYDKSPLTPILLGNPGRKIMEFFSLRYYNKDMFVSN
Experimental: as §1, §2, §3, §4, §5, §6, §7

IC50 ([1]; Table 2) | IC50 [2] | IC50 ([1]; Table 1) | Compound
0.12 µM | 0.29 µM |  | CC1(C)C(=O)N([C@H]2C3CC4CC2C[C@](O)(C4)C3)N1Cc1cc(F)ccc1Cl [Example 67, trans-1-(2-chloro-5-fluorobenzyl)-2-(5-hydroxyadamantan-2-yl)-4,4-dimethyl-1,2-diazetidin-3-one]
0.021 µM | 0.11 µM |  | CC1(C)C(=O)N(C2CCCCCCC2)N1Cc1ccccc1Cl [Example 73, 1-(2-chlorobenzyl)-2-cyclooctyl-4,4-dimethyl-1,2-diazetidin-3-one]
0.038 µM | 0.15 µM |  | CC1(C)C(=O)N(C2CCCCCCC2)N1Cc1cc(Cl)ccc1Cl [Example 75, 2-cyclooctyl-1-(2,5-dichlorobenzyl)-4,4-dimethyl-1,2-diazetidin-3-one]
0.15 µM | 0.64 µM |  | CC1(C)C(=O)N(C2CC3CCC2C3)N1Cc1ccccc1Cl (centres unmarked) [Example 78, 2-(bicyclo[2.2.1]heptan-2-yl)-1-(2-chlorobenzyl)-4,4-dimethyl-1,2-diazetidin-3-one]
0.22 µM | 0.36 µM |  | CC1(C)C(=O)N(C2CC3CCC2C3)N1Cc1cccc(Cl)c1Cl (centres unmarked) [Example 79, 2-(bicyclo[2.2.1]heptan-2-yl)-1-(2,3-dichlorobenzyl)-4,4-dimethyl-1,2-diazetidin-3-one]
0.13 µM | 0.39 µM |  | CC1(C)C(=O)N(C2CC3CCC2C3)N1Cc1cc(Cl)ccc1Cl (centres unmarked) [Example 80, 2-(bicyclo[2.2.1]heptan-2-yl)-1-(2,5-dichlorobenzyl)-4,4-dimethyl-1,2-diazetidin-3-one]
0.092 µM | 0.66 µM |  | CC1(C)C(=O)N(C2CCCCCC2)N1Cc1ccccc1Cl [Example 83, 1-(2-chlorobenzyl)-2-cycloheptyl-4,4-dimethyl-1,2-diazetidin-3-one]
0.13 µM | 0.61 µM |  | CC1(C)C(=O)N(C2CCCCCC2)N1Cc1cccc(Cl)c1Cl [Example 84, 2-cycloheptyl-1-(2,3-dichlorobenzyl)-4,4-dimethyl-1,2-diazetidin-3-one]
0.053 µM | 0.37 µM |  | CC1(C)C(=O)N(C2CCCCCC2)N1Cc1cc(Cl)ccc1Cl [Example 85, 2-cycloheptyl-1-(2,5-dichlorobenzyl)-4,4-dimethyl-1,2-diazetidin-3-one]
0.14 µM | 0.49 µM |  | CC1(C)C(=O)N(C2CCCCCC2)N1Cc1ccc(F)cc1Cl [Example 86, 1-(2-chloro-4-fluorobenzyl)-2-cycloheptyl-4,4-dimethyl-1,2-diazetidin-3-one]
0.1 µM | 0.85 µM |  | CC1(C)C(=O)N(C2CCCCCC2)N1Cc1cc(F)ccc1Cl [Example 87, 1-(2-chloro-5-fluorobenzyl)-2-cycloheptyl-4,4-dimethyl-1,2-diazetidin-3-one]
0.13 µM | 0.35 µM |  | CC1(C)C(=O)N(C2C3CC4CC2CC(C(N)=O)(C4)C3)N1Cc1ccccc1Cl (centres unmarked) [Example 95, 4-[2-(2-chlorobenzyl)-3,3-dimethyl-4-oxo-1,2-diazetidin-1-yl]adamantane-1-carboxamide]
0.8 µM | 0.22 µM |  | CC1(C)C(=O)N(C2C3CC4CC(C3)CC2C4)N1C(=O)c1ccccc1 (centres unmarked) [Example 96, 4,4-dimethyl-1-(phenylcarbonyl)-2-(adamantan-2-yl)-1,2-diazetidin-3-one]
0.75 µM | 0.17 µM |  | CC1(C)C(=O)N(C2C3CC4CC(C3)CC2C4)N1C(=O)c1ccc(Br)cc1 (centres unmarked) [Example 106, 1-[(4-bromophenyl)carbonyl]-4,4-dimethyl-2-(adamantan-2-yl)-1,2-diazetidin-3-one]
0.75 µM | 0.2 µM |  | Cc1cccc(C(=O)N2N(C3C4CC5CC(C4)CC3C5)C(=O)C2(C)C)c1 (centres unmarked) [Example 109, 4,4-dimethyl-1-[(3-methylphenyl)carbonyl]-2-(adamantan-2-yl)-1,2-diazetidin-3-one]
0.42 µM | 0.12 µM |  | CC1(C)C(=O)N(C2C3CC4CC(C3)CC2C4)N1C(=O)c1cccc(Br)c1 (centres unmarked) [Example 113, 1-[(3-bromophenyl)carbonyl]-4,4-dimethyl-2-(adamantan-2-yl)-1,2-diazetidin-3-one]
0.54 µM | 0.11 µM |  | Cc1ccc(C(=O)N2N(C3C4CC5CC(C4)CC3C5)C(=O)C2(C)C)cc1 (centres unmarked) [Example 114, 4,4-dimethyl-1-[(4-methylphenyl)carbonyl]-2-(adamantan-2-yl)-1,2-diazetidin-3-one]
 | 0.15 µM | 0.13 µM | Cc1ccccc1C(=O)N1N(C2C3CC4CC(C3)CC2C4)C(=O)C1(C)C (centres unmarked) [Example 116, 4,4-dimethyl-1-[(2-methylphenyl)carbonyl]-2-(adamantan-2-yl)-1,2-diazetidin-3-one]
0.98 µM | 0.39 µM |  | CC1(C)C(=O)N(C2C3CC4CC(C3)CC2C4)N1C(=O)c1cc(Cl)cc(Cl)c1 (centres unmarked) [Example 117, 1-[(3,5-dichlorophenyl)carbonyl]-4,4-dimethyl-2-(adamantan-2-yl)-1,2-diazetidin-3-one]
 | 0.42 µM | 0.47 µM | Cc1ccc(F)cc1C(=O)N1N(C2C3CC4CC(C3)CC2C4)C(=O)C1(C)C (centres unmarked) [Example 125, 1-[(5-fluoro-2-methylphenyl)carbonyl]-4,4-dimethyl-2-(adamantan-2-yl)-1,2-diazetidin-3-one]
 | 0.1 µM | 0.5 µM | CC1(C)C(=O)N(C2C3CC4CC(C3)CC2C4)N1C(=O)c1cccc(Cl)c1 (centres unmarked) [Example 128, 1-[(3-chlorophenyl)carbonyl]-4,4-dimethyl-2-(adamantan-2-yl)-1,2-diazetidin-3-one]
0.76 µM | 0.11 µM |  | CC1(C)C(=O)N(C2C3CC4CC(C3)CC2C4)N1C(=O)c1ccc2c(c1)OCO2 (centres unmarked) [Example 135, 1-(1,3-benzodioxol-5-ylcarbonyl)-4,4-dimethyl-2-(adamantan-2-yl)-1,2-diazetidin-3-one]
 | 0.24 µM | 0.22 µM | CC1(C)C(=O)N(C2C3CC4CC(C3)CC2C4)N1C(=O)c1ccccc1O (centres unmarked) [Example 138, 1-[(2-hydroxyphenyl)carbonyl]-4,4-dimethyl-2-(adamantan-2-yl)-1,2-diazetidin-3-one]
 | 0.36 µM | 0.79 µM | CC1(C)C(=O)N(C2C3CC4CC(C3)CC2C4)N1C(=O)c1ccc(N)cc1 (centres unmarked) [Example 139, 1-[(4-aminophenyl)carbonyl]-4,4-dimethyl-2-(adamantan-2-yl)-1,2-diazetidin-3-one]
 | 0.43 µM | 0.84 µM | CC1(C)C(=O)N(C2CCCCCCC2)N1C(=O)c1cccc(Cl)c1 [Example 150, 1-[(3-chlorophenyl)carbonyl]-2-cyclooctyl-4,4-dimethyl-1,2-diazetidin-3-one]
 | 0.3 µM | 0.81 µM | Cc1cccc(C(=O)N2N(C3CCCCCCC3)C(=O)C2(C)C)c1 [Example 151, 2-cyclooctyl-4,4-dimethyl-1-[(3-methylphenyl)carbonyl]-1,2-diazetidin-3-one]
 | 0.54 µM | 0.23 µM | Cc1ccccc1C(=O)N1N(C2CCCCCCC2)C(=O)C1(C)C [Example 152, 2-cyclooctyl-4,4-dimethyl-1-[(2-methylphenyl)carbonyl]-1,2-diazetidin-3-one]
 | 0.032 µM | 0.14 µM | CC1(C)C(=O)N(C2CCCCCCC2)N1C(=O)c1ccccc1N [Example 153, 1-[(2-aminophenyl)carbonyl]-2-cyclooctyl-4,4-dimethyl-1,2-diazetidin-3-one]
